The source of these data is patent publication US12522607B2, “Substituted pyrazolo[3,4-d]pyrimidines as wee-1 inhibitors” (WIGEN BIOMEDICINE TECHNOLOGY (SHANGHAI) CO., LTD., priority 2020, dated 2026).

Test [1] concerns the target T1, Wee-1 kinase (Homo sapiens, UniProt P30291).
T1 construct: purchased Invitrogen
Kind of test: Inhibitory activity against Wee-1 kinase (Lanthra Screen Wee-1 kinase kit, Tracer 178). In kind it is binding. The following applies: Wee-1 kinase 5 nM, Tracer 178 50 nM, 1 h room temperature. On the procedure: Example 342. Assay for Inhibitory Activity of Compounds Against Wee-1 Kinase
The inhibitory activity of compounds against Wee-1 kinase was determined by using the Lanthra Screen Wee-1 kinase kit (Invitrogen). 5 μL of the compound diluted in a gradient with DMSO, 5 μL. of Wee-1 kinase (at a final concentration of 5 nM), 5 μL of an Eu-Anti-GST antibody (at a final concentration of 2 nM) mixture and 5 μL of kinase Tracer 178 (at a final concentration of 50 nM) were mixed well. The plate was read after incubation at room temperature for one hour. For comparison with the DMSO solvent control group, IC50 for the inhibition activity of the compounds against Wee-1 kinase was calculated.

For test [2], the system named is HT29 cells. Kind of test: Antiproliferative activity against HT29 cells (Cell Titer-Lumi, ATP content). Type of test: cell-based. To be noted: Homo sapiens, HT-29, 72 after compound addition, read-out: HT-29 cells Anti-proliferative activity (IC50 for the inhibition against HT-29 cell growth). On the procedure:
Example 343. Assay for Antiproliferative Activity Against HT29 Cells
3000 HT29 cells were seed in a 384-well plate (Fisher 142762). After the cells adhered to the wall overnight, the compounds diluted in a gradient were added. 72 later, Cell Titer-Lumi (Beyotime C0068XL) was added to determine the content of ATP in the cells. The growth of the cells was evaluated, and the IC50 for the inhibition of the compounds against cell growth was calculated.

T1 sequence (P30291 whole entry): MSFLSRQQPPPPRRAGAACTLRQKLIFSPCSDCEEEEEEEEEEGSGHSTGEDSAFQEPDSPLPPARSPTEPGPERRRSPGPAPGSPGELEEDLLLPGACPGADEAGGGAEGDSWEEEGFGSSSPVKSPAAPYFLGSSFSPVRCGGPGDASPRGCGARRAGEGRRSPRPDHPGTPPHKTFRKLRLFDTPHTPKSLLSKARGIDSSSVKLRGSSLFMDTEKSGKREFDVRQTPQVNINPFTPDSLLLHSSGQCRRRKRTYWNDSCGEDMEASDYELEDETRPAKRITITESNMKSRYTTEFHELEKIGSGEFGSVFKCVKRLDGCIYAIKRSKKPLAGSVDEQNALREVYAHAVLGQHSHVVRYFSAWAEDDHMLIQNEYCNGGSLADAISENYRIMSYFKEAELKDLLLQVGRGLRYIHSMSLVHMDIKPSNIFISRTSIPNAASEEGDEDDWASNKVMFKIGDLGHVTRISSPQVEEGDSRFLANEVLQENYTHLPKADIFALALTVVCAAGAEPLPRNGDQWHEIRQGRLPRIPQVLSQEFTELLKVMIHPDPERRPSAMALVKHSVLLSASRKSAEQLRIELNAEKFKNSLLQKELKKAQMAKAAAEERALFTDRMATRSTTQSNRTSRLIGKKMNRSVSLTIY

As a reminder, the IC50 is the concentration at which inhibition is half-maximal. Regarding `C=CCn1c(=O)c2cnc(Nc3ccc(N4CC[C@@H](N(C)C)C4)cc3)nc2n1-c1ccc(=O)n(C(C)C)n1` [Compound 95], the IC50 in test [1] was at most 30 nM; in test [2], at most 1000 nM.

As for `C=CCn1c(=O)c2cnc(Nc3ccc(N4CC[C@@H](N(C)C)C4)c(C)c3)nc2n1-c1ccc(=O)n(C(C)C)n1` [Compound 96], the half-inhibitory concentration (IC50) in test [1] is at most 30 nM; in test [2] it was at most 1000 nM.

For `C=CCn1c(=O)c2cnc(Nc3ccc(N4CC[C@@H](N(C)C)C4)c(OC)c3)nc2n1-c1ccc(=O)n(C(C)C)n1` [Compound 97], the figures for the half-maximal inhibitory concentration (IC50) in test [1] and in test [2] were at most 30 nM and at most 1000 nM, respectively.

`C=CCn1c(=O)c2cnc(Nc3ccc(N4CCC(N(C)C)CC4)cc3)nc2n1-c1ccc(=O)n(C(C)C)n1` [Compound 98]: the IC50 is at most 30 nM in test [1] and at most 1000 nM in test [2].

In the case of `C=CCn1c(=O)c2cnc(Nc3ccc(N4CCC(N(C)C)CC4)c(C)c3)nc2n1-c1ccc(=O)n(C(C)C)n1` [Compound 99], the half-maximal inhibitory concentration (IC50) in test [1] is at most 30 nM; in test [2], at most 1000 nM.

As to `C=CCn1c(=O)c2cnc(Nc3ccc(N4CCC(N(C)C)CC4)c(OC)c3)nc2n1-c1ccc(=O)n(C(C)C)n1` [Compound 100], the half-maximal inhibitory concentration (IC50) was at most 30 nM in test [1] and at most 1000 nM in test [2].

Take `C=CCn1c(=O)c2cnc(Nc3ccc(N4CCC(N)CC4)cc3)nc2n1-c1ccc(=O)n(C(C)C)n1` [Compound 101]: the IC50 was at most 30 nM in test [1] and 1000 to 3000 nM in test [2].

For the compound `C=CCn1c(=O)c2cnc(Nc3ccc(N4CCC(N)CC4)c(C)c3)nc2n1-c1ccc(=O)n(C(C)C)n1` [Compound 102], the results for the 50% inhibitory concentration (IC50) in test [1] and in test [2] were at most 30 nM and at most 1000 nM, respectively.

As to `C=CCn1c(=O)c2cnc(Nc3ccc(N4CCC(N)CC4)c(OC)c3)nc2n1-c1ccc(=O)n(C(C)C)n1` [Compound 103], the IC50 was at most 30 nM in test [1] and at most 1000 nM in test [2].

With `C=CCn1c(=O)c2cnc(Nc3ccc(N4CCC(NC)CC4)cc3)nc2n1-c1ccc(=O)n(C(C)C)n1` [Compound 104], the values for the IC50 in test [1] and in test [2] were at most 30 nM and at most 1000 nM, respectively.

Take `C=CCn1c(=O)c2cnc(Nc3ccc(N4CCC(NC)CC4)c(C)c3)nc2n1-c1ccc(=O)n(C(C)C)n1` [Compound 105]: the IC50 in test [1] was at most 30 nM; in test [2], at most 1000 nM.

With `C=CCn1c(=O)c2cnc(Nc3ccc(N4CCC(NC)CC4)c(OC)c3)nc2n1-c1ccc(=O)n(C(C)C)n1` [Compound 106], the 50% inhibitory concentration (IC50) was at most 30 nM in test [1] and at most 1000 nM in test [2].

`C=CCn1c(=O)c2cnc(Nc3ccc(N4CCC(C)(N)CC4)cc3)nc2n1-c1ccc(=O)n(C(C)C)n1` [Compound 107]: the results for the 50% inhibitory concentration (IC50) in test [1] and in test [2] were at most 30 nM and at most 1000 nM, respectively.

`C=CCn1c(=O)c2cnc(Nc3ccc(N4CCC(C)(N)CC4)c(C)c3)nc2n1-c1ccc(=O)n(C(C)C)n1` [Compound 108]: the IC50 was at most 30 nM in test [1] and at most 1000 nM in test [2].

Consider `C=CCn1c(=O)c2cnc(Nc3ccc(N4CCC(C)(N)CC4)c(OC)c3)nc2n1-c1ccc(=O)n(C(C)C)n1` [Compound 109], for which the IC50 in test [1] was at most 30 nM; in test [2], at most 1000 nM.

With `C=CCn1c(=O)c2cnc(Nc3ccc(N4CCC(C)(NC)CC4)cc3)nc2n1-c1ccc(=O)n(C(C)C)n1` [Compound 110], the IC50 in test [1] was at most 30 nM; in test [2], at most 1000 nM.

In the case of `C=CCn1c(=O)c2cnc(Nc3ccc(N4CCC(C)(NC)CC4)c(C)c3)nc2n1-c1ccc(=O)n(C(C)C)n1` [Compound 111], the results for the IC50 in test [1] and in test [2] were at most 30 nM and at most 1000 nM, respectively.

On to `C=CCn1c(=O)c2cnc(Nc3ccc(N4CCC(C)(NC)CC4)c(OC)c3)nc2n1-c1ccc(=O)n(C(C)C)n1` [Compound 112], for which the results for the half-maximal inhibitory concentration (IC50) in test [1] and in test [2] were at most 30 nM and at most 1000 nM, respectively.

Turning to `C=CCn1c(=O)c2cnc(Nc3ccc(N4CCC(C)(N(C)C)CC4)cc3)nc2n1-c1ccc(=O)n(C(C)C)n1` [Compound 113], the figures for the concentration for half-maximal inhibition (IC50) in test [1] and in test [2] were at most 30 nM and at most 1000 nM, respectively.

Consider `C=CCn1c(=O)c2cnc(Nc3ccc(N4CCC(C)(N(C)C)CC4)c(C)c3)nc2n1-c1ccc(=O)n(C(C)C)n1` [Compound 114], for which the IC50 in test [1] is at most 30 nM; in test [2], at most 1000 nM.

As to `C=CCn1c(=O)c2cnc(Nc3ccc(N4CCC(C)(N(C)C)CC4)c(OC)c3)nc2n1-c1ccc(=O)n(C(C)C)n1` [Compound 115], the half-maximal inhibitory concentration (IC50) was at most 30 nM in test [1] and at most 1000 nM in test [2].

As for `C=CCn1c(=O)c2cnc(Nc3ccc(N4C[C@@H](C)N[C@@H](C)C4)cc3)nc2n1-c1ccc(=O)n(C(C)C)n1` [Compound 116], the values for the half-maximal inhibitory concentration (IC50) in test [1] and in test [2] were at most 30 nM and at most 1000 nM, respectively.

On to `C=CCn1c(=O)c2cnc(Nc3ccc(N4C[C@@H](C)N(C)[C@@H](C)C4)cc3)nc2n1-c1ccc(=O)n(C(C)C)n1` [Compound 117], for which the figures for the IC50 in test [1] and in test [2] were at most 30 nM and at most 1000 nM, respectively.

Take `C=CCn1c(=O)c2cnc(Nc3ccc(N4C[C@@H](C)N[C@@H](C)C4)c(C)c3)nc2n1-c1ccc(=O)n(C(C)C)n1` [Compound 118]: the IC50 in test [1] is at most 30 nM; in test [2], at most 1000 nM.

For the compound `C=CCn1c(=O)c2cnc(Nc3ccc(N4C[C@@H](C)N(C)[C@@H](C)C4)c(C)c3)nc2n1-c1ccc(=O)n(C(C)C)n1` [Compound 119], the IC50 in test [1] is at most 30 nM; in test [2], at most 1000 nM.

Turning to `C=CCn1c(=O)c2cnc(Nc3ccc(N4C[C@@H](C)N[C@@H](C)C4)c(Cl)c3)nc2n1-c1ccc(=O)n(C(C)C)n1` [Compound 120], the half-inhibitory concentration (IC50) is at most 30 nM in test [1] and at most 1000 nM in test [2].

Regarding `C=CCn1c(=O)c2cnc(Nc3ccc(N4C[C@@H](C)N(C)[C@@H](C)C4)c(Cl)c3)nc2n1-c1ccc(=O)n(C(C)C)n1` [Compound 121], the IC50 in test [1] was at most 30 nM; in test [2], at most 1000 nM.

For `C=CCn1c(=O)c2cnc(Nc3ccc(N4C[C@@H](C)N[C@@H](C)C4)c(C(F)(F)F)c3)nc2n1-c1ccc(=O)n(C(C)C)n1` [Compound 122], the IC50 is at most 30 nM in test [1] and at most 1000 nM in test [2].

In the case of `C=CCn1c(=O)c2cnc(Nc3ccc(N4C[C@@H](C)N(C)[C@@H](C)C4)c(C(F)(F)F)c3)nc2n1-c1ccc(=O)n(C(C)C)n1` [Compound 123], the IC50 in test [1] is at most 30 nM; in test [2] it was at most 1000 nM.

In the case of `C=CCn1c(=O)c2cnc(Nc3ccc(N4C[C@H](C)NC[C@H]4C)cc3)nc2n1-c1ccc(=O)n(C(C)C)n1` [Compound 124], the IC50 in test [1] is at most 30 nM; in test [2], at most 1000 nM.

As for `C=CCn1c(=O)c2cnc(Nc3ccc(N4C[C@H](C)N(C)C[C@H]4C)cc3)nc2n1-c1ccc(=O)n(C(C)C)n1` [Compound 125], the half-maximal inhibitory concentration (IC50) is at most 30 nM in test [1] and at most 1000 nM in test [2].

As for `C=CCn1c(=O)c2cnc(Nc3ccc(N4C[C@H](C)NC[C@H]4C)c(C)c3)nc2n1-c1ccc(=O)n(C(C)C)n1` [Compound 126], the values for the IC50 in test [1] and in test [2] were at most 30 nM and at most 1000 nM, respectively.

In the case of `C=CCn1c(=O)c2cnc(Nc3ccc(N4C[C@H](C)N(C)C[C@H]4C)c(C)c3)nc2n1-c1ccc(=O)n(C(C)C)n1` [Compound 127], the figures for the IC50 in test [1] and in test [2] were at most 30 nM and at most 1000 nM, respectively.

Turning to `C=CCn1c(=O)c2cnc(Nc3ccc(N4CCN[C@@H](C)C4)cc3)nc2n1-c1ccc(=O)n(C(C)C)n1` [Compound 128], the IC50 in test [1] is at most 30 nM; in test [2], at most 1000 nM.

On to `C=CCn1c(=O)c2cnc(Nc3ccc(N4CCN(C)[C@@H](C)C4)cc3)nc2n1-c1ccc(=O)n(C(C)C)n1` [Compound 129], for which the figures for the IC50 in test [1] and in test [2] were at most 30 nM and at most 1000 nM, respectively.

Turning to `C=CCn1c(=O)c2cnc(Nc3ccc(N4CCN[C@@H](C)C4)c(C)c3)nc2n1-c1ccc(=O)n(C(C)C)n1` [Compound 130], the figures for the IC50 in test [1] and in test [2] were at most 30 nM and at most 1000 nM, respectively.

As for `C=CCn1c(=O)c2cnc(Nc3ccc(N4CCN[C@H](C)C4)cc3)nc2n1-c1ccc(=O)n(C(C)C)n1` [Compound 131], the IC50 in test [1] is at most 30 nM; in test [2] it was at most 1000 nM.

Regarding `C=CCn1c(=O)c2cnc(Nc3ccc(N4CCN(C)[C@H](C)C4)cc3)nc2n1-c1ccc(=O)n(C(C)C)n1` [Compound 132], the concentration for half-maximal inhibition (IC50) in test [1] is at most 30 nM; in test [2], at most 1000 nM.

Turning to `C=CCn1c(=O)c2cnc(Nc3ccc(N4CCN[C@H](C)C4)c(C)c3)nc2n1-c1ccc(=O)n(C(C)C)n1` [Compound 133], the IC50 in test [1] is at most 30 nM; in test [2] it was at most 1000 nM.

With `C=CCn1c(=O)c2cnc(Nc3ccc(N4CCN(C)[C@H](C)C4)c(C)c3)nc2n1-c1ccc(=O)n(C(C)C)n1` [Compound 134], the IC50 in test [1] is at most 30 nM; in test [2], at most 1000 nM.

As to `C=CCn1c(=O)c2cnc(Nc3ccc(N4CC5CCC(C4)N5)cc3)nc2n1-c1ccc(=O)n(C(C)C)n1` [Compound 135], the figures for the IC50 in test [1] and in test [2] were 30 to 100 nM and 1000 to 3000 nM, respectively.

Regarding `C=CCn1c(=O)c2cnc(Nc3ccc(N4CC5CCC(C4)N5C)cc3)nc2n1-c1ccc(=O)n(C(C)C)n1` [Compound 136], the IC50 lay within 30 to 100 nM in test [1] and 1000 to 3000 nM in test [2].

For the compound `C=CCn1c(=O)c2cnc(Nc3ccc(N4CC5CCC(C4)N5)c(C)c3)nc2n1-c1ccc(=O)n(C(C)C)n1` [Compound 137], the results for the half-inhibitory concentration (IC50) in test [1] and in test [2] were at most 30 nM and 1000 to 3000 nM, respectively.

Turning to `C=CCn1c(=O)c2cnc(Nc3ccc(N4CC5CCC(C4)N5C)c(C)c3)nc2n1-c1ccc(=O)n(C(C)C)n1` [Compound 138], the IC50 in test [1] was at most 30 nM; in test [2] it was 1000 to 3000 nM.
